Measured values taken from patent US9938281B2 (Merck Sharp & Dohme Corp., priority 2012, dated 2018).

Legend:
PI3K-alpha = biological target: T1, PI3K-alpha (Homo sapiens, UniProt P42336); assay: HTRF PI3K biochemical assay, alpha isoform; conditions: ratio PI3K-alpha IC50 value / PI3K-delta IC50 value
T1 construct: purchased Upstate; Millipore 14-602

PI3K-delta = biological target: T2, PI3K-delta (Homo sapiens, UniProt O00329); assay: HTRF PI3K biochemical assay, delta isoform; conditions: form screened (neutral or TFA salt) given, read-out: PI3Kdelta IC50
T2 construct: purchased Upstate; Millipore 14-604
T2 sequence (O00329 whole entry, canonical isoform): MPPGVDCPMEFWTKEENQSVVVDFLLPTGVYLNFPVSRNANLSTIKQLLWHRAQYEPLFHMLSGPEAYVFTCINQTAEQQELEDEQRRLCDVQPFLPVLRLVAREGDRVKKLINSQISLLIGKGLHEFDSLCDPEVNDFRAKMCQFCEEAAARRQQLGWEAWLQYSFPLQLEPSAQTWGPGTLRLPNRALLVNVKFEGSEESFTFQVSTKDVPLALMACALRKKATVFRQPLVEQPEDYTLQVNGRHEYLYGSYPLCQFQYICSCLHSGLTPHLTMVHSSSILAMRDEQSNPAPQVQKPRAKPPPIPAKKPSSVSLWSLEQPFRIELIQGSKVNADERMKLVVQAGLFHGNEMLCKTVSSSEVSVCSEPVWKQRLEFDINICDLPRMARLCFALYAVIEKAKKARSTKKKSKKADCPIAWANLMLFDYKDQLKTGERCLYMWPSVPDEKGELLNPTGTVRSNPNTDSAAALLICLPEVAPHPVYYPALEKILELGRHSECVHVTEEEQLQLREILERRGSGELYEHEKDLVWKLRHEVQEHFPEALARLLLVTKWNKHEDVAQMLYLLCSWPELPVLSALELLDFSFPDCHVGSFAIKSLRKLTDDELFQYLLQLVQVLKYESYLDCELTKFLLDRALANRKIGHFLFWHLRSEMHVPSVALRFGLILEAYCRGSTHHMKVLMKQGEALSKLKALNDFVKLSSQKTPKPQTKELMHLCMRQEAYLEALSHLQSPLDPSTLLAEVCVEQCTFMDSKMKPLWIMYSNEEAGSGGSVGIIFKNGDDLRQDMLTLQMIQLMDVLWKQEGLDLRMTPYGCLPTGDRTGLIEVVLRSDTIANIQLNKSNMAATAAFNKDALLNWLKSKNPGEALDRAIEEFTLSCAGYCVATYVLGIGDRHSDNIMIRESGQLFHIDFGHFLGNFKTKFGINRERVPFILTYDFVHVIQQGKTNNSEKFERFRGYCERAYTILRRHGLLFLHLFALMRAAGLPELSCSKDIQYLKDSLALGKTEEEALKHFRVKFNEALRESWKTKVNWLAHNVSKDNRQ
T2 sequence (P27986 whole entry partner, canonical isoform): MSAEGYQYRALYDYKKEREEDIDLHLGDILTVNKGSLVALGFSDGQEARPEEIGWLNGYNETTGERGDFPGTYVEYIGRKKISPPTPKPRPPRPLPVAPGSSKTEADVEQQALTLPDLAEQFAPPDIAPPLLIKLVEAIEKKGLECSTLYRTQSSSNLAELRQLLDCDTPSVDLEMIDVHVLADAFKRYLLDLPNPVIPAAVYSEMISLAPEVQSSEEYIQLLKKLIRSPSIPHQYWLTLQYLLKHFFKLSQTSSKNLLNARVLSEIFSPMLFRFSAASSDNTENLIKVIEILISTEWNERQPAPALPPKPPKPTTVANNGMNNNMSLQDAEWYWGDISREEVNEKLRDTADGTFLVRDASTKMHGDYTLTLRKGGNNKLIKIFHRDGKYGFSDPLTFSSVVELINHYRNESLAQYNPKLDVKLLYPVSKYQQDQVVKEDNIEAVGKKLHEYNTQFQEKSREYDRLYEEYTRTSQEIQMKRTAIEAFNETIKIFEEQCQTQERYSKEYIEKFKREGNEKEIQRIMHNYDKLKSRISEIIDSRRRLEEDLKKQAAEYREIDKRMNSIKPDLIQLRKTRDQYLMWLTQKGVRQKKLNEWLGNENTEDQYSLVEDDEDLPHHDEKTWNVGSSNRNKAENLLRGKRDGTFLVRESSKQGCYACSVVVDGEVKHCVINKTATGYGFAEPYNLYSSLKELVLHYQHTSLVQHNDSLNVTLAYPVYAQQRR
Text: HTRF PI3K Biochemical Assay to Measure Intrinsic Potency of Compound Inhibitors
This assay was developed and further optimized from a kit produced by Upstate (Millipore catalog #33-047) and has been configured for HTS and SAR screening. Briefly, this procedure exploits the exquisite specificity and high affinity binding of enzyme reaction substrate phosphatidyl(3,4,5)triphosphate (PIP3) to the GRP1 pleckstrin homology (PH) domain to generate the signal. In the absence of PIP3, an HTRF (Homogeneous Time-Resolved Fluorescence energy transfer) complex is formed consisting of europium (Eu)-labeled anti-GST, GSTtagged GRP1-PH domain, biotin-PIP3 and streptavidin conjugated APC. The native PIP3 produced by PI3-Kinase activity disrupts in a competitive manner the biotin-PIP3 from the PH domain, resulting in the loss of energy transfer (HTRF complex) and a decrease in the signal. The format of this assay is the same for all 4 isoforms of PI3K; the differences lie in the concentration of enzyme used to achieve robust assay window. The alpha, beta, and delta assays are run at 0.5, 1, and 0.3 nM enzymes and the gamma assay is run at 5 nM enzyme. The ATP concentration is 100 uM in the alpha, beta, and delta assays and 50 uM ATP in the gamma assay. All reactions are run at 5 uM PIP2.
Compounds are serially diluted (3-fold in 100% DMSO) across a 384-well polypropylene source plated from column 3 to column 12 and column 13 to column 22, to yield 10 concentration dose response for each test compound. Columns 1, 2, 23 and 24 contain either only DMSO or pharmacological known control inhibitor.
The PI3-Kinase biochemical assay was optimized using the HTRF kit provided by Upstate (Millipore). The assay kit contains six reagents: 1) 4× Reaction Buffer; 2) native PIP2 (substrate); 3) Stop (EDTA); 4) Detection Mix A (Streptavidin-APC); 5) Detection Mix B (Eu-labeled Anti-GST plus GST-tagged PH-domain); 6) Detection Mix C.
PI3Kinase Reaction Buffer is prepared by dilution the stock 1:4 with de-ionized water. […] Enzyme addition and compound pre-incubation are initiated by the addition of 1.25 ul of PI3K (at twice its final concentration) in the 1× reaction buffer to all wells using a BioRaptor. Plates are incubated at room temperature for 15 minutes. Reactions are initiated by addition of 1.25 ul of 2× substrate solution (PIP2 and ATP in 1× reaction buffer) using BioRaptor. Plates are incubated in humidified chamber at room temperature for one hour. Reactions are quenched by addition of 0.625 uL of stop solution to all wells using the BioRaptor. The quenched reactions are then processed to detect product formation by adding 0.625 uL of Detection Solution to all wells using the BioRaptor (Detection mix C, Detection Mix A, and Detection Mix B combined together in an 18:1:1 ratio prepared 2 hours prior to use).
The loss of the HTRF signal is due to the displacement of biotinylated-PIP3 from the PH domain by the PI3K-dependent conversion of PIP2 to PIP3. This loss of signal is nonlinear with respect to both increasing product and time. This non-linear detection will impact accuracy of IC50 calculations; therefore, there is a need for a correction factor to obtain more accurate IC50 values. This correction is derived from a PIP3 standard curve run in a separate assay plate. All data were calculated using the ratio of acceptor (APC) to donor (Europium) fluorescence in each well of the assay plate. […] An IC50 was then calculated fitting the % inhibition data to the equation: % inhibition=min+(Max−min)/1+([inhibitor]/IC50)^n) where min is the % inhibition with inhibitor, max is the signal in DMSO control, and n is the Hill slope.

T1 sequence (P42336 whole entry, canonical isoform): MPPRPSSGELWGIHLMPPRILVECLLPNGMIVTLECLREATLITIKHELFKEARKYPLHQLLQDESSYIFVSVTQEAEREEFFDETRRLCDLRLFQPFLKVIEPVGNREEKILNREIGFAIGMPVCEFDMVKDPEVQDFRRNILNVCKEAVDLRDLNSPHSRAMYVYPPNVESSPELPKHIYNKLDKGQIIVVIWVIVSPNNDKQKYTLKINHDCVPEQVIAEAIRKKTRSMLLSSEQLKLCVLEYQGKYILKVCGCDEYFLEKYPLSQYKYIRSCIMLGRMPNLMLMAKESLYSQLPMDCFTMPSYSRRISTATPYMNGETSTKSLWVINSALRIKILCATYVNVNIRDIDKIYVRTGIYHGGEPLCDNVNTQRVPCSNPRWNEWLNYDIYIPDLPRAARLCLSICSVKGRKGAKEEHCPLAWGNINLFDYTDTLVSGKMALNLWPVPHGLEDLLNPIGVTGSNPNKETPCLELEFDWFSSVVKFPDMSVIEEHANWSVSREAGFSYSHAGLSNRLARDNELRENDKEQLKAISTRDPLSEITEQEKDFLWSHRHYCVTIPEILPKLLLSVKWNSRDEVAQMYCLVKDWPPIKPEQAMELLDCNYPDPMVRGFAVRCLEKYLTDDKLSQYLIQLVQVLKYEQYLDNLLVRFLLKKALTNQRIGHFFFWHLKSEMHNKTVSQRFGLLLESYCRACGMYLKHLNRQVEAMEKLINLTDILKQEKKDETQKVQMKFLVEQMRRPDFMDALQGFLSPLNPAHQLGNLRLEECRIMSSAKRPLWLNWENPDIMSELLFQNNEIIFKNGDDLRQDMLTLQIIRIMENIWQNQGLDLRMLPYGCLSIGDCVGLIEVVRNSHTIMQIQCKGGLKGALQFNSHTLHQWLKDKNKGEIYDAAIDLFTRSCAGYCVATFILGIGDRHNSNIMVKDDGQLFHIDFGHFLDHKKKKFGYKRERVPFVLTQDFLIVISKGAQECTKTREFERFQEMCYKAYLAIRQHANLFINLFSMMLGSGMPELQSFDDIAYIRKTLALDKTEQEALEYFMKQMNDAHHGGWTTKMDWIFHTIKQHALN
T1 sequence (P27986 whole entry partner, canonical isoform): as the sequence (P27986 whole entry partner, canonical isoform) above

Selectivity versus PI3Kalpha (PI3K-alpha)	IC50 (PI3K-delta)	Structure (SMILES)
>10	3.5 nM	CCC(C)OC(=O)N1CC[C@H](Nc2ncnc3c2nc(-c2cnc(C)nc2)n3CC)C1 (mixture of isomers) [Compound 13-9, (S and R)-1-methylpropyl (3S)-3-{[9-ethyl-8-(2-methylpyrimidin-5-yl)-9H-purin-6-yl]amino}pyrrolidine-1-carboxylate]
>10	32 nM	CCC(=O)N1CC[C@H](Nc2ncnc3c2nc(C(F)F)n3CC)C1 [Compound 7-13, 8-(difluoromethyl)-9-ethyl-N-[(3S)-1-propanoylpyrrolidin-3-yl]-9H-purin-6-amine]
>10	< 1 nM	CCn1c(-n2cnc3ccccc32)nc2c(N[C@H]3CCN(C(=O)C4CC4)C3)ncnc21 [Compound 8-2, 8-(1H-benzimidazol-1-yl)-N-[(3S)-1-(cyclopropylcarbonyl)pyrrolidin-3-yl]-9-ethyl-9H-purin-6-amine]
>10	1.4 nM	CCn1c(-c2cnc(C)nc2)nc2c(N[C@H]3CCN(C(=O)N4CCC4)C3)ncnc21 [Compound 12-9, N-[(3S)-1-(azetidin-1-ylcarbonyl)pyrrolidin-3-yl]-9-ethyl-8-(2-methylpyrimidin-5-yl)-9H-purin-6-amine]
>10	15 nM	CCn1c(-c2cnc(C)nc2)nc2c(N[C@H]3CCCN(C(=O)C4CC4)C3)ncnc21 [Compound 2-28, N-[(3S)-1-(cyclopropylcarbonyl)piperidin-3-yl]-9-ethyl-8-(2-methylpyrimn-5-yl)-9H-purin-6-amine]
>10	< 1 nM	CCn1c(-c2cnc(C)nc2)nc2c(N[C@H]3CCN(C(=O)[C@H]4C[C@@H](OC)C4)C3)ncnc21 [Compound 2-39, 9-ethyl-N-{(3S)-1-[(cis-3-methoxycyclobutyl)carbonyl]pyrrolidin-3-yl}-8-(2-methylpyrimidin-5-yl)-9H-purin-6-amine]
>10	< 1 nM	CCn1c(-c2cnc(OC)c(Cl)c2)nc2c(N[C@H]3CCN(C(=O)C4CC4)C3)ncnc21 [Compound 3-25, 8-(5-chloro-6-methoxypyridin-3-yl)-N-[(3S)-1-(cyclopropylcarbonyl)pyrrolidin-3-yl]-9-ethyl-9H-purin-6-amine]
>10	48 nM	CCn1c(C#CCO)nc2c(N[C@H]3CCN(C(=O)C4CC4)C3)ncnc21 [Compound 16-4, 3-(6-{[(3S)-1-(cyclopropylcarbonyl)pyrrolidin-3-yl]amino}-9-ethyl-9H-purin-8-yl)prop-2-yn-1-ol]
>10	8.7 nM	CCn1c(-c2cnc(C)nc2)nc2c(N[C@H]3CCN(C(=O)OCCF)C3)ncnc21 [Compound 13-3, 2-fluoroethyl (3S)-3-{[9-ethyl-8-(2-methylpyrimidin-5-yl)-9H-purin-6-yl]amino}pyrrolidine-1-carboxylate]
>10	1.2 nM	CCn1c(-c2cnn(CC(F)(F)F)c2)nc2c(N[C@H]3CCN(C(=O)C4CC4)C3)ncnc21 [Compound 3-36, N-[(3S)-1-(cyclopropylcarbonyl)pyrrolidin-3-yl]-9-ethyl-8-[1-(2,2,2-trifluoroethyl)-1H-pyrazol-4-yl]-9H-purin-6-amine]
>10	4.3 nM	CCn1c(-c2cnc(C)nc2)nc2c(N[C@H]3CCN(C(=O)[C@H]4CCOC4)C3)ncnc21 [Compound 2-41, 9-ethyl-8-(2-methylpyrimidin-5-yl)-N-{(3S)-1-[(3S)-tetrahydrofuran-3-ylcarbonyl]pyrrolidin-3-yl}-9H-purin-6-amine]
>10	6.7 nM	CCN(c1ncnc2c1nc(-c1cnc(C)nc1)n2CC)[C@H]1CCN(C(=O)C2CC2)C1 [Compound 3-28, N-[(3S)-1-(cyclopropylcarbonyl)pyrrolidin-3-yl]-N,9-diethyl-8-(2-methylpyrimidin-5-yl)-9H-purin-6-amine]
>10	4.5 nM	CCC(=O)N1CC[C@H](Nc2ncnc3c2nc(-c2ccc(C)nc2)n3C)C1 [Compound 3-5, (S)-1-(3-((9-methyl-8-(6-methylpyridin-3-yl)-9H-purin-6-yl)amino)pyrrolidin-1-yl)propan-1-one]
>10	2.7 nM	CCC(=O)N1CC[C@H](Nc2ncnc3c2nc(-c2cnc(C)nc2)n3CC)C1 [Compound 2-17, (S)-1-(3-((9-ethyl-8-(2-methylpyrimidin-5-yl)-9H-purin-6-yl)amino)pyrrolidin-1-yl)propan-1-one]
>10	6.3 nM	CCn1c(-c2cnc(C)nc2)nc2c(N(C)[C@H]3CCN(C(=O)[C@H]4CC[C@@H](O)CC4)C3)ncnc21 [Compound 2-100, cis-4-{[(3S)-3-{[9-ethyl-8-(2-methylpyrimidin-5-yl)-9H-purin-6-yl](methyl)amino}pyrrolidin-1-yl]carbonyl}cyclohexanol]
>10	7.4 nM	CCn1ncc(-c2nc3c(N[C@H]4CCCN(S(=O)(=O)CC)C4)ncnc3n2C)c1C [Compound 11-1, 8-(1-ethyl-5-methyl-1H-pyrazol-4-yl)-N-[(3S)-1-(ethylsulfonyl)piperidin-3-yl]-9-methyl-9H-purin-6-amine]
>10	< 1 nM	CCn1c(-c2cnc(OC)c(C)c2)nc2c(N[C@H]3CCN(C(=O)c4cncn4C)C3)ncnc21 [Compound 3A-6, 9-ethyl-8-(6-methoxy-5-methylpyridin-3-yl)-N-{(3S)-1-[(1-methyl-1H-imidazol-5-yl)carbonyl]pyrrolidin-3-yl}-9H-purin-6-amine]
>10	4.7 nM	CCn1c(-c2cnc(C)nc2)nc2c(N[C@H]3C[C@H](C(=O)OC)N(C(=O)C4CC4)C3)ncnc21 [Compound 2-53, methyl (4S)-1-(cyclopropylcarbonyl)-4-{[9-ethyl-8-(2-methylpyrimidin-5-yl)-9H-purin-6-yl]amino}-D-prolinate]
>10	1.7 nM	COc1ncc(-c2nc3c(N[C@H]4CCN(C(=O)OC(C)(C)C)C4)ncnc3n2C)cc1C [Compound 1-8, (S)-tert-butyl 3-((8-(6-methoxy-5-methylpyridin-3-yl)-9-methyl-9H-purin-6-yl)amino)pyrrolidine-1-carboxylate]
>10	< 1 nM	CCn1c(-c2ccc(C(F)(F)F)nc2)nc2c(N[C@H]3CCN(C(=O)[C@H]4C[C@@H](OC)C4)C3)ncnc21 [Compound 2-105, 9-ethyl-N-{(3S)-1-[(cis-3-methoxycyclobutyl)carbonyl]pyrrolidin-3-yl}-8-[6-(trifluoromethyl)pyridin-3-yl]-9H-purin-6-amine]
>10	1.8 nM	CCC(=O)N1CC[C@H](Nc2ncnc3c2nc(-c2ccc(OC)c(F)c2)n3C)C1 [Compound 3-10, 8-(3-fluoro-4-methoxyphenyl)-9-methyl-N-[(3S)-1-propanoylpyrrolidin-3-yl]-9H-purin-6-amine]
>10	12 nM	CCn1c(-c2cnc(C)nc2)nc2c(N[C@H]3C[C@H](CO)N(C(=O)OC(C)(C)C)C3)ncnc21 [Compound 1-20, tert-butyl (2R,4S)-4-{[9-ethyl-8-(2-methylpyrimidin-5-yl)-9H-purin-6-yl]amino}-2-(hydroxymethyl)pyrrolidine-1-carboxylate]
>10	< 1 nM	CCC(=O)N1CC[C@H](Nc2ncnc3c2nc(-c2cnn(CC)c2C)n3C)C1 [Compound 2-3, (S)-1-(3-((8-(1-ethyl-5-methyl-1H-pyrazol-4-yl)-9-methyl-9H-purin-6-yl)amino)pyrrolidin-1-yl)propan-1-one]
>10	7.3 nM	CCn1c(-c2cnc(C)nc2)nc2c(N[C@H]3CCN(C(=O)C4C5CCNC54)C3)ncnc21 (mixture of isomers) [Compound 2-85, N-[(3S)-1-(1(R and S), 5(R and S), 6(R and S)-2-azabicyclo[3.1.0]hex-6-ylcarbonyl)pyrrolidin-3-yl]-9-ethyl-8-(2-methylpyrimidin-5-yl)-9H-purin-6-amine]
>10	19 nM	CCn1ncc(-c2nc3c(N[C@H]4CCCN(C(=O)OC(C)(C)C)C4)ncnc3n2C)c1C [Compound 1-12, (S)-tert-butyl 3-((8-(1-ethyl-5-methyl-1H-pyrazol-4-yl)-9-methyl-9H-purin-6-yl)amino)piperidine-1-carboxylate]
>10	3 nM	CCn1c(-c2cnc(C)nc2)nc2c(N[C@H]3C[C@H](C(N)=O)N(C(=O)C4CC4)C3)ncnc21 [Compound 15-5, (4S)-1-(cyclopropylcarbonyl)-4-{[9-ethyl-8-(2-methylpyrimidin-5-yl)-9H-purin-6-yl]amino}-D-prolinamide]
>10	29 nM	CCn1c(-c2cnc(C)nc2)nc2c(N[C@H]3CCN(C(=O)[C@H]4CCCN4C)C3)ncnc21 [Compound 2-42, 9-ethyl-N-[(3S)-1-(1-methyl-D-prolyl)pyrrolidin-3-yl]-8-(2-methylpyrimidin-5-yl)-9H-purin-6-amine]
>10	3.7 nM	CCn1c(-c2cnc(C)nc2)nc2c(N[C@H]3CC[C@@H](C(=O)N(C)C4CC4)C3)ncnc21 [Compound 5-5, (1R,3S)-N-cyclopropyl-3-{[9-ethyl-8-(2-methylpyrimidin-5-yl)-9H-purin-6-yl]amino}-N-methylcyclopentanecarboxamide]

Structure (SMILES)	Selectivity versus PI3Kalpha (PI3K-alpha)	IC50 (PI3K-delta)
CCn1c(-c2cnc(C)nc2)nc2c(N[C@H]3CCN(C(=O)C4C(C)(C)C4(C)C)C3)ncnc21 [Compound 2-60, 9-ethyl-8-(2-methylpyrimidin-5-yl)-N-{(3S)-1-[(2,2,3,3-tetramethylcyclopropyl)carbon-yl]pyrrolidin-3-yl}-9H-purin-6-amine]	>10	1.6 nM
